Data published in ChEMBL document CHEMBL1201862, “PubChem BioAssay data set” (2004).
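Interpolation was linear, between the two tested concentrations surrounding the appropriate level; five concentrations were tested over 48 hours in 96-well plates. GI50 is the concentration that inhibits growth by half.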 Calls of active or inactive are those of the source. Cut-off read from the data, not from the text of the source: active = GI50 up to about 1.1 µM and inactive = higher.

Experiments:
Assay in all cases: DTP human tumour cell line panel, 48 h
SNB-75 = tested on: SNB-75
SR = tested on: SR
SF-295 = tested on: SF-295
SK-MEL-28 = tested on: SK-MEL-28
SK-MEL-5 = tested on: SK-MEL-5
MDA-MB-435 = tested on: MDA-MB-435
COLO 205 = tested on: COLO 205
HCT-116 = tested on: HCT-116
HL-60 = tested on: HL-60
OVCAR-5 = tested on: OVCAR-5
UACC-62 = tested on: UACC-62
RXF 393 = tested on: RXF 393
CCRF-CEM = tested on: CCRF-CEM
IGROV-1 = tested on: IGROV-1
BT-549 = tested on: BT-549
MDA-N = tested on: MDA-N
M14 = tested on: M14
MOLT-4 = tested on: MOLT-4
Hs-578T = tested on: Hs-578T

Measured: GI50

NC(Cc1ccc(O)c(O)c1)P(=O)(O)O (configuration not stated)
inactive: SNB-75 > 100 µM | SR 91.8 µM | SF-295 > 100 µM | SK-MEL-28 > 100 µM | SK-MEL-5 > 100 µM | MDA-MB-435 > 100 µM | COLO 205 > 10 µM | HCT-116 > 100 µM | HL-60 16.2 µM | OVCAR-5 > 100 µM | UACC-62 > 100 µM | RXF 393 > 100 µM | CCRF-CEM 21.6 µM | IGROV-1 > 100 µM | BT-549 > 100 µM | MDA-N > 100 µM | M14 > 100 µM | MOLT-4 > 100 µM

Cc1cc(Br)c(N2C3=C(CC4=C2CCCC4=O)C(=O)CCC3)c(Br)c1
inactive: SNB-75 46.1 µM | SR 36.6 µM | SK-MEL-28 > 100 µM | SK-MEL-5 38.7 µM | HL-60 32.7 µM | OVCAR-5 > 100 µM | UACC-62 63.2 µM | Hs-578T > 100 µM | RXF 393 25.8 µM | CCRF-CEM 10.3 µM | IGROV-1 > 100 µM | BT-549 51.3 µM | M14 > 100 µM | MOLT-4 15.4 µM

CC(C)(C)C=C=C(C(C)(C)C)P(=O)(O)O
inactive: SNB-75 > 100 µM | SR > 100 µM | SF-295 > 100 µM | SK-MEL-28 > 100 µM | SK-MEL-5 > 100 µM | MDA-MB-435 > 100 µM | COLO 205 > 100 µM | HCT-116 > 100 µM | HL-60 > 100 µM | OVCAR-5 > 100 µM | UACC-62 > 100 µM | Hs-578T > 100 µM | RXF 393 > 100 µM | IGROV-1 > 100 µM | MDA-N > 100 µM | M14 > 100 µM

C/C(=C\CNc1ncnc2[nH]c(Cl)nc12)CO
inactive: SNB-75 > 100 µM | SR > 100 µM | SF-295 > 100 µM | SK-MEL-28 > 100 µM | SK-MEL-5 > 100 µM | MDA-MB-435 > 100 µM | COLO 205 > 100 µM | HCT-116 > 100 µM | HL-60 > 100 µM | OVCAR-5 > 100 µM | Hs-578T > 100 µM | RXF 393 > 100 µM | CCRF-CEM > 100 µM | IGROV-1 > 100 µM | MDA-N > 100 µM | M14 > 100 µM | MOLT-4 > 100 µM

O=c1c2ccccc2nnn1-c1n[nH]c2ccccc12
inactive: SNB-75 > 100 µM | SF-295 > 100 µM | SK-MEL-28 > 100 µM | SK-MEL-5 37.8 µM | MDA-MB-435 > 100 µM | COLO 205 > 100 µM | HCT-116 > 100 µM | OVCAR-5 13.9 µM | UACC-62 > 100 µM | Hs-578T > 100 µM | RXF 393 > 100 µM | CCRF-CEM > 100 µM | IGROV-1 > 100 µM | BT-549 > 100 µM | M14 > 100 µM

CCOC(=O)N1Cc2ccoc2C1
inactive: SNB-75 > 100 µM | SR > 100 µM | SF-295 > 100 µM | SK-MEL-28 > 100 µM | SK-MEL-5 > 100 µM | COLO 205 > 100 µM | HCT-116 > 100 µM | HL-60 > 100 µM | OVCAR-5 > 100 µM | UACC-62 > 100 µM | RXF 393 > 100 µM | CCRF-CEM > 100 µM | IGROV-1 > 100 µM | M14 > 100 µM | MOLT-4 > 100 µM

COc1ccc(C23OCC(Cc4cc(OC)c(OC)cc42)C3COC(C)=O)cc1OC (configuration not stated)
inactive: SNB-75 > 100 µM | SR 27.4 µM | SF-295 > 100 µM | SK-MEL-28 > 100 µM | SK-MEL-5 20.7 µM | MDA-MB-435 > 100 µM | COLO 205 > 100 µM | HCT-116 > 100 µM | HL-60 > 100 µM | OVCAR-5 > 100 µM | UACC-62 > 100 µM | RXF 393 > 100 µM | BT-549 > 100 µM | M14 > 100 µM | MOLT-4 > 100 µM

O=c1c2cc(I)ccc2nc(-c2cccs2)n1/N=C/c1ccccc1
inactive: SNB-75 > 100 µM | SR 10.1 µM | SF-295 > 100 µM | SK-MEL-28 > 100 µM | SK-MEL-5 > 100 µM | MDA-MB-435 > 100 µM | COLO 205 > 100 µM | HCT-116 > 100 µM | HL-60 > 100 µM | OVCAR-5 > 100 µM | UACC-62 > 100 µM | RXF 393 > 100 µM | CCRF-CEM > 100 µM | IGROV-1 > 100 µM | BT-549 > 100 µM | M14 > 100 µM

CCOC(CNCCC(=O)OC)OCC
inactive: SNB-75 > 10 µM | SR > 10 µM | SF-295 > 10 µM | SK-MEL-28 > 10 µM | SK-MEL-5 > 10 µM | MDA-MB-435 > 10 µM | COLO 205 > 10 µM | HCT-116 > 10 µM | HL-60 > 10 µM | UACC-62 > 10 µM | Hs-578T > 10 µM | RXF 393 > 10 µM | CCRF-CEM > 10 µM | IGROV-1 > 10 µM | MDA-N > 10 µM | M14 > 10 µM | MOLT-4 > 10 µM

COc1ccc2c3c([nH]c2c1)CCN(CCCC(=O)c1ccc(F)cc1)C3
inactive: SNB-75 12.2 µM | SR 18 µM | SF-295 15.7 µM | SK-MEL-28 15.3 µM | SK-MEL-5 13.2 µM | MDA-MB-435 17.1 µM | COLO 205 12.8 µM | HCT-116 12.2 µM | HL-60 15 µM | OVCAR-5 13.8 µM | UACC-62 13.8 µM | Hs-578T 6.56 µM | RXF 393 14.2 µM | CCRF-CEM 19.8 µM | IGROV-1 18.4 µM | MDA-N 20 µM | M14 15.5 µM | MOLT-4 16.7 µM

COC(=O)CCC12CCC(O1)c1ccccc12 (configuration not stated)
inactive: SNB-75 > 100 µM | SR > 100 µM | SF-295 > 100 µM | SK-MEL-28 > 100 µM | SK-MEL-5 > 100 µM | MDA-MB-435 > 100 µM | COLO 205 > 100 µM | HCT-116 > 100 µM | HL-60 > 100 µM | OVCAR-5 > 100 µM | UACC-62 > 100 µM | RXF 393 > 100 µM | CCRF-CEM > 100 µM | IGROV-1 > 100 µM | BT-549 > 100 µM | MDA-N > 100 µM | M14 > 100 µM | MOLT-4 > 100 µM

CC(C)(/C=N\O)NO
inactive: SR > 10 µM | SF-295 > 10 µM | MDA-MB-435 > 10 µM | COLO 205 > 10 µM | HCT-116 > 10 µM | HL-60 > 10 µM | OVCAR-5 > 10 µM | RXF 393 > 10 µM | CCRF-CEM > 10 µM | BT-549 > 10 µM | MDA-N > 10 µM | M14 > 10 µM | MOLT-4 > 10 µM

O=C(CN1CCCC1)Nc1ccc2c(c1)C1Oc3ccccc3CC1CO2 (configuration not stated)
inactive: SR 33.3 µM | SF-295 20.5 µM | SK-MEL-5 14.6 µM | MDA-MB-435 22.2 µM | COLO 205 14 µM | HCT-116 33 µM | HL-60 46.6 µM | OVCAR-5 30.9 µM | UACC-62 17 µM | CCRF-CEM 47.2 µM | IGROV-1 36.6 µM | BT-549 19.4 µM | MDA-N 31.2 µM | M14 20.1 µM | MOLT-4 31.4 µM
